Assay results reported in ChEMBL document CHEMBL1129895, “A novel series of matrix metalloproteinase inhibitors for the treatment of inflammatory disorders” (Bioorg Med Chem Lett, 1997).
Square brackets hold non-standard residues; d marks the D form. Peptide text beside a SMILES is read from it. * marks the point of attachment. Propionyl = CCC(=O)*; Mpa = O=C(O)CCS

How the values were obtained:
Neutrophil collagenase = Neutrophil collagenase (Rattus norvegicus, UniProt O88766); assay: Compound was tested for its inhibitory activity against Matrix metalloprotease-8 (MMP-8) in adjuvant arthritic rat model of rheumatoid arthritis
[1] = target: T1, Matrix metalloproteinase-9 (Rattus norvegicus, UniProt P50282); assay: Compound was tested for its inhibitory activity against Matrix metalloprotease-9 (MMP-9) in adjuvant arthritic rat model of rheumatoid arthritis
[2] = target: T1, Matrix metalloproteinase-9; assay: Compound was tested for its inhibitory activity against Matrix metalloprotease-9 in adjuvant arthritic rat model of rheumatoid arthritis
Rattus norvegicus = assay: Inhibition of hind paw swelling was observed by the administration of compound at 40 mg/kg/day, perorally in adjuvant arthritic rat model of rheumatoid arthritis; format: functional; details: route oral

T1 sequence (P50282 whole entry): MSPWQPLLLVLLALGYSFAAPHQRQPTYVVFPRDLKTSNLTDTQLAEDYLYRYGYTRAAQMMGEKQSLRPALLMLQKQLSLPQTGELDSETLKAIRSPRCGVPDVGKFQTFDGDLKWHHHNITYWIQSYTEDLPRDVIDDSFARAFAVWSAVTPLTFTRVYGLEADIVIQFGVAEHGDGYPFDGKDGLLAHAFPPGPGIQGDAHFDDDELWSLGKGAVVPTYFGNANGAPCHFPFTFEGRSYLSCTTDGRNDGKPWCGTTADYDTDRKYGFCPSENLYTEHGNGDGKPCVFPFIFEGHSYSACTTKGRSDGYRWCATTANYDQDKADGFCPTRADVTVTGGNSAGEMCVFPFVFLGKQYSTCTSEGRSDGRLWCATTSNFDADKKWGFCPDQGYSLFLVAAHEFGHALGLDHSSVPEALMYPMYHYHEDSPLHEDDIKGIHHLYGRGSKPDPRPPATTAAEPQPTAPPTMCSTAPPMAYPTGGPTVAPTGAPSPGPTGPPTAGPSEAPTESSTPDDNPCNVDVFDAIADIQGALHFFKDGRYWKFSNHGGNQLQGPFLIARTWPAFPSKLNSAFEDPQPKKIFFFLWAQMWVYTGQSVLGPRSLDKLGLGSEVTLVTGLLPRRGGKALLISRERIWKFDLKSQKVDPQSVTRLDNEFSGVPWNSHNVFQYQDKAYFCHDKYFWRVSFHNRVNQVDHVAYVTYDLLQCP
Sequence of Neutrophil collagenase (O88766 whole entry): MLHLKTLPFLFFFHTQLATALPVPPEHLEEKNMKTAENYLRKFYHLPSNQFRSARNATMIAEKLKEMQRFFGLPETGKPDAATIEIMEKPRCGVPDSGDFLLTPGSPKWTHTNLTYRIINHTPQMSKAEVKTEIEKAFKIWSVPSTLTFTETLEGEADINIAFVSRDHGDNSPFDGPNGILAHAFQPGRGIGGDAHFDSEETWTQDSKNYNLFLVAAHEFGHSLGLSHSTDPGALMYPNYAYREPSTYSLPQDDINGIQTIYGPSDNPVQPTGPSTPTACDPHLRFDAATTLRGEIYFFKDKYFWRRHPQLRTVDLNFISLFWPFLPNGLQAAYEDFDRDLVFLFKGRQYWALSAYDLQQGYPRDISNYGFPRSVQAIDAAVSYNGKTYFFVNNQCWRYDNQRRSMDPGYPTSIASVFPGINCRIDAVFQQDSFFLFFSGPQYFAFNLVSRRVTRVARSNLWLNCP

IC50 (Neutrophil collagenase) [nM]	IC50 [1] [nM]	IC50 [2] [nM]	Compound	inhibition in vivo at 40 mg/kg/day (Rattus norvegicus) [%]
12	7		CNC(=O)[C@H](Cc1cscn1)NC(=O)[C@H](CC(C)C)NC(=O)CS	
480		350	CNC(=O)[C@H](Cc1ccccc1)NC(=O)[C@H](C[S+](C)[O-])NC(=O)CS (stereo partly specified)	
6		13	CNC(=O)[C@H](Cc1ccccc1)NC(=O)[C@H](CSC)NC(=O)CS	
50		90	CNC(=O)[C@H](Cc1ccccc1)NC(=O)[C@H](CC(C)C)NC(=O)CS	40
5100		9600	CNC(=O)[C@H](Cc1ccccc1)NC(=O)[C@H](CC(C)C)NC(=O)CCS ([Mpa]-Leu-Phe-NHMe)	
> 100000		30000	CCC(=O)N[C@@H](CC(C)C)C(=O)N[C@@H](Cc1ccccc1)C(=O)NC (Propionyl-Leu-Phe-NHMe)	
80	30		CNC(=O)[C@H](Cc1c[nH]c2ccccc12)NC(=O)[C@H](CC(C)C)NC(=O)CS	
2600		4600	CNC(=O)[C@H](Cc1ccccc1)NC(=O)[C@H](CC(C)C)NC(=O)CSC	
4100		1700	CNC(=O)[C@H](Cc1ccccc1)NC(=O)[C@@H](NC(=O)CS)C(C)O (stereo partly specified)	
20	120		CNC(=O)[C@H](Cc1c[nH]c2ccccc12)NC(=O)[C@H](CSC)NC(=O)CS	
